Results published in patent publication US20250345443A1, “PHARMACEUTICAL COMPOUND AND USE THEREOF” (DUALITY BIOLOGICS (SUZHOU) CO., LTD., priority 2022, published 2025).

Key:
Assay type in all cases: cell-based
human PBMCs [1] = assay: Induction activity of compounds on TNF-α in human PBMCs (ELISA); conditions: 24 h
Method: (§1) PBMC cells were treated with the compounds. The compounds of the present application were diluted with DMSO, for example, to about 15 mM. The reference compounds were diluted to 5 mg/mL and then sequentially added to cell plates. The compounds were serially 3-fold diluted to give a total of 8 concentrations and added to cell plates, with two replicate wells set for each concentration. DMSO was added to the negative control wells at 0.4 μL/well, and the reference compounds at 5 mg/mL were added to the positive control wells at 0.4 μL/well. The final concentration of DMSO was 0.2%. Frozen human PBMCs in cryopreservation tubes were quickly thawed in a 37° C. water bath and transferred into 50-mL centrifuge tubes. Pre-warmed RPMI1640 medium was gradually added, and the mixture was well mixed and centrifuged for 15 min before the supernatant was discarded. The cells were resuspended in a culture medium and then counted. The cell suspension was adjusted to 2.5×10^6 cells/mL with the culture medium. Diluted cells were added at 200 μL/500,000 cells/well in the 96-well plates containing the compounds.
The plate was then washed 3 times.
(§2) Compound activity data analysis: The OD450 values were converted to TNF-α and IFN-α contents by GraphPad Prism software analysis and fitted to give dose-response curves of the compounds. The EC50 values of the compounds were calculated.

human PBMCs [2] = assay: Induction activity of compounds on IFN-α in human PBMCs (ELISA); conditions: 24 h
Method: as §1, §2

[3] = target: T1, hTLR7 (human Toll-like receptor 7) (Homo sapiens, UniProt Q9NYK1); assay: Agonistic activity of compounds on hTLR7 (HEK-Blue hTLR7 cells, QUANTI-Blue OD650); conditions: 24 h
T1 construct: host or cells: HEK-Blue hTLR7 cells
T1 sequence (Q9NYK1 27-1049): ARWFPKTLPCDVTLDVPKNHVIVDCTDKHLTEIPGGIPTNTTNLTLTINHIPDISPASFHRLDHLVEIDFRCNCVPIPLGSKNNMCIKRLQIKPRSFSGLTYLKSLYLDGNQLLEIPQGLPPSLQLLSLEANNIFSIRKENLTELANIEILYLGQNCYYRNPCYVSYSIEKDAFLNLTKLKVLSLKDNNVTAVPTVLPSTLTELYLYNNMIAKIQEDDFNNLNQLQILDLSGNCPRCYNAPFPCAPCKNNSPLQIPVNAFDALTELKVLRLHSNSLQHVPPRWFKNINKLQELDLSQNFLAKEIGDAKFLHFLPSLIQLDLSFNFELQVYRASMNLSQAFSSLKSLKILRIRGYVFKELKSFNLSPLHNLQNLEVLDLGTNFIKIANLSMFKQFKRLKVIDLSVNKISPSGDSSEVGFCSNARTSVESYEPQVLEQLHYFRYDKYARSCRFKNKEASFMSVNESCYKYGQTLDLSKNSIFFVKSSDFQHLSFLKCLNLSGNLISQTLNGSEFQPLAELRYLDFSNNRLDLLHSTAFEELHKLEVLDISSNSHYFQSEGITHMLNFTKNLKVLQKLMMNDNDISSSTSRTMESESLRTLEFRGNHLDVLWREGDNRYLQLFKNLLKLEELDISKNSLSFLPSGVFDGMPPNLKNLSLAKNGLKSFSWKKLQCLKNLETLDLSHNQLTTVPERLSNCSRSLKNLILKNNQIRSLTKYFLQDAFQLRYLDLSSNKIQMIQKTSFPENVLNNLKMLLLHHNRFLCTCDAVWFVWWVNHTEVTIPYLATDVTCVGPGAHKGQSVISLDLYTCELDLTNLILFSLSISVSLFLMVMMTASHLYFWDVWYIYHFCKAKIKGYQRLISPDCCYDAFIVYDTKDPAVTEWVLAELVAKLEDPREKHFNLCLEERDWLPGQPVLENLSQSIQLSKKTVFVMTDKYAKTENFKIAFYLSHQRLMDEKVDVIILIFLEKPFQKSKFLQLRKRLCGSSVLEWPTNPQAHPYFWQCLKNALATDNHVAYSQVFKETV
Method: (§3) In this example, the agonistic activity of the compounds of the present application on hTLR7 (human Toll-like receptor 7) and hTLR8 (human Toll-like receptor 8) was assessed; the induction activity of the compounds on human PBMCs for TNF-α and IFN-α production was assessed in human PBMCs (human peripheral blood mononuclear cells).
(§4) All compounds were formulated in DMSO into 30 mM concentrated stock solutions and preserved at 4° C. […] HEK-Blue hTLR7 and HEK-Blue hTLR8 cell lines were purchased from InvivoGen, and human PBMCs were purchased from Shanghai Saily Biotechnology Co., Ltd. (Cat. No. XFB—HP100B).
(§5) Compound dilution: The compounds of the present application were diluted with DMSO, for example, to about 15 mM. The reference compounds were diluted and then sequentially added to cell plates. […] DMSO was added to the negative control wells at 0.2 μL/well, and the reference compounds were added to the positive control wells. The final concentration of DMSO was 0.2%.
(§6) Cell plating: When an 80% confluence of HEK Blue hTLR7&8 cells in the culture flask was observed under a microscope, the culture medium was discarded, 10 mL of detection medium was added, and the cells were pipetted to form a single-cell suspension. The cells were counted using a cell counter and diluted to 500,000 cells/mL. The cells were plated at 100 μL/50,000 cells/well in the 96-well plates containing the compounds. The compounds and cells were co-incubated in an incubator at 37° C. with 5% CO2 for 24 h.
(§7) Compound activity detection: 20 μL of cell supernatant was taken from each well and added to an experimental plate containing QUANTI-Blue™ reagent at 180 μL/well. The plate was incubated at 37° C. for 1 h, and then the absorbance at 650 nm (OD650) was measured on the multimode microplate reader Flexstation III.
(§8) The EC50 values of the compounds were calculated.

[4] = target: T2, hTLR8 (human Toll-like receptor 8) (Homo sapiens, UniProt Q9NR97); assay: Agonistic activity of compounds on hTLR8 (HEK-Blue hTLR8 cells, QUANTI-Blue OD650); conditions: 24 h
T2 construct: host or cells: HEK-Blue hTLR8 cells
T2 sequence (Q9NR97 27-1041): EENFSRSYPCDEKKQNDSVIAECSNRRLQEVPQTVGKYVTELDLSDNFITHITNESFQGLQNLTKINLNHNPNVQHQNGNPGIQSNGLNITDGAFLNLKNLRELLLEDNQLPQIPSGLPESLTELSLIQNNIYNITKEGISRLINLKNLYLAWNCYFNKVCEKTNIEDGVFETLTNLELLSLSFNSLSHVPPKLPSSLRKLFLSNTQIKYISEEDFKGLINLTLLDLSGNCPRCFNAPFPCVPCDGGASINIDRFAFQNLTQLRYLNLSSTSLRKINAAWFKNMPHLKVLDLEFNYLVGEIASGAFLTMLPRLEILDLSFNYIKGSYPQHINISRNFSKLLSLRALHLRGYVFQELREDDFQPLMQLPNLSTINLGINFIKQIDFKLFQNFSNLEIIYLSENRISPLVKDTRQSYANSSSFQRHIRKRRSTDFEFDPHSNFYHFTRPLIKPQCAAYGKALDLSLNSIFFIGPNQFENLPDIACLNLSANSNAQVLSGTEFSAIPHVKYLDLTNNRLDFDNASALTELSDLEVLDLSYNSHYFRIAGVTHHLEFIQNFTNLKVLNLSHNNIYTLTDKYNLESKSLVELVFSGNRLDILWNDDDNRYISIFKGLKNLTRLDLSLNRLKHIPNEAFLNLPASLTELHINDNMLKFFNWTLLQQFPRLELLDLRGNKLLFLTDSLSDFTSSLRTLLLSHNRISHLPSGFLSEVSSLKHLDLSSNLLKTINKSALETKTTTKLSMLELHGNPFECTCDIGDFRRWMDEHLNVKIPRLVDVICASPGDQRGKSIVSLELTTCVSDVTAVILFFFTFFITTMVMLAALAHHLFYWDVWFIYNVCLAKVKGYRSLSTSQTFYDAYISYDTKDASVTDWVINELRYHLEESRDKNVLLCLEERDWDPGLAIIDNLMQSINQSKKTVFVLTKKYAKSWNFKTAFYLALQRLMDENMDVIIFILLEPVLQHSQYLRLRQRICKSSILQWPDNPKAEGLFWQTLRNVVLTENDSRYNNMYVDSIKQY
Method: as §3, §4, §5, §6, §7, §8

hTLR8 = target: T3, hTLR8 (Homo sapiens, UniProt Q9NR97); assay: Stimulation of spleen cells from hTLR8-C57BL/6 mice with TLR8 agonists (ELISA)
T3 construct: tissue Biocytogen; host or cells: spleen cells from hTLR8-C57BL/6 (hTLR8 humanized, knock-in) mice
T3 sequence (Q9NR97 27-1041): T2 sequence (Q9NR97 27-1041)

SMILES | EC50 (human PBMCs [1]; PBMC) [nM] | EC50 (human PBMCs [2]; PBMC) [nM] | EC50 [3] [nM] | EC50 [4] [nM] | secretion of TNFα and IFNγ by spleen cells (hTLR8) | EC50 (human PBMCs [1]) [nM] | EC50 (human PBMCs [2]) [nM]
CCCN(Cc1ccc(N)cc1)C(=O)C1=Cc2ccc(-c3ccc(C(=O)N4CC[C@@H](O)C4)cc3)cc2N=C(N)C1 [compound 11] | 303 | 453 | – | – | – | – | –
CCOCc1nc2c(N)nc3cccc(CCCCCN)c3c2s1 [compound 18] | – | – | 1060 | 260 | – | – | –
CCCCc1nc2c(N)nc3cccc(CCCCCN)c3c2o1 [compound 19] | – | – | 149 | 11.3 | – | – | –
CCCCc1nc2c(N)nc3cccc(CCCCCCN)c3c2s1 [compound 17] | 132 | 50 | 192 | 173 | – | – | –
CCCC[C@](C)(CO)Nc1nc(N)nc2cc(F)cnc12 [GS-9688] | – | – | – | – | increase in the secretion of TNFα and IFNγ | – | –
CCCCc1nc2c(N)nc3cccc(CCCCN)c3c2s1 [compound 16] | 117 | 451 | 434 | 55.2 | – | – | –
CCCN(CCC)C(=O)C1=Cc2ccc(-c3ccc(C(=O)N4CCCC4)cc3)cc2N=C(N)C1 [VTX-2337, reference compound] | 1010 | > 7500 | > 30000 | 21.1 | – | – | –
CCCN(Cc1cccc(N)c1)C(=O)C1=Cc2ccc(-c3cncc(CO)c3)cc2N=C(N)C1 [compound 13] | – | – | 14400 | 60.8 | – | – | –
CCCCc1nc2c(N)nc3cccc(CCCCCN)c3c2s1 [compound 14] | 147 | 74 | 191 | 11.6 | – | – | –
CCOCc1nc2c(N)nc3ccccc3c2n1CC(C)(C)O [R848, reference compound] | – | – | – | – | – | 2330 | 202
CCCN(Cc1ccc(N)cc1)C(=O)C1=Cc2ccc(-c3cncc(CO)c3)cc2N=C(N)C1 [compound 10] | 375 | 45 | 6260 | 33.2 | – | – | –
CCCN(Cc1ccc(N)cc1)C(=O)C1=Cc2ccc(-c3ccc4c(c3)C(=O)OC4)cc2N=C(N)C1 [compound 12] | 351 | 191 | 1670 | 432 | – | – | –
CCCCc1nc2c(N)nc3cccc(CCCCN)c3c2o1 [compound 20] | – | – | 73.3 | 6.52 | – | – | –
